Read-outs that look alike come from different tables or passages of the source.

Series [1] concerns Peripheral blood mononuclear cells co-cultured with venular endothelial cells (HUVEC) (LPS system). Kind of series: BioMAP LPS system. Conditions: procedure of Example 827. Type of series: cell-based, human.
The test system of series [2] is Peripheral blood mononuclear cells co-cultured with B-cells (BT system).
Series [3] concerns Very long-chain acyl-CoA dehydrogenase (VLCAD) primary fibroblasts GM17475. Briefly: NADP+/NADPH (NADP/NADPH-Glo), VLCAD fibroblasts GM17475. It counts as cell-based. Conditions: Homo sapiens, Fibroblast, 24h, read-out: Increase in Total NADP+ + NADPH. As for the experimental part:
Primary adherent fibroblasts were cultured in minimum essential medium (MEM) (Gibco, 25030081) supplemented with 2 mM L-Glutamine (Gibco, 25030081), 15% fetal bovine serum (FBS) (Gibco, 26400044) and 1% penicillin/streptomycin (Gibco, 5140122) at 37° C. and 5% CO2. Cells were collected for either passaging or experiment at ˜70-80% confluence. Cells were obtained by trypsinization and seeded in cell culture microplates either white plate (Thermo Fisher Scientific, 152028) for luminescent measurement or black plate (Thermo Fisher Scientific, 165305) for fluorescent based read out for different assays listed below. Cells were obtained by trypsinization and […] were seeded and allowed to adhere for 16-18 hours to have confluency around 70-80% in the cell well with culture media. After 24 hours prior to measurements (37° C., 5% CO2) media was changed to Dulbecco's Modified Eagle Medium (DMEM, Agilent Seahorse cat #103575-100) with the appropriate supplements as stated below.
Primary fibroblasts assayed were Propionic Acidemia (PA) (GM03590 Coriell Institute for Medical Research, Tsi 6337 Trans-Hit Bio), Methylmalonic Acidemia (MMA) (Tsi 5224 Trans-Hit Bio), Subnormal activation of pyruvate dehydrogenase complex (PDH) (GM01503 Coriell Institute for Medical Research), Very long-chain acyl-CoA dehydrogenase (VLCAD) (GM17475), Leigh Syndrome (LS) (GM03672, GM13411 Coriell Institute for Medical Research), Pyruvate Carboxylase Deficiency (PC) (GM00444 Coriell Institute for Medical Research). 10 μM of Compounds were added for 2 hours in PA, MMA lines and for 24h for the other fibroblast lines.
Assay was performed according to manufacturer instructions (NADP+/NADPH-Glo Assay Promega, G9082). Assay required a plate for total measurement of NADP+/NADPH and a plate for individual measurement of NADP+ or NADPH. For every assay a 12-point standard curve is prepared ranging from 400 nM to 0.625 nM. Media is removed and replaced with 50 μl of PBS for both assays.
For individual NADP+/NADPH measurements, 50 μl of 1% DTAB (Sigma, D5047) (cell lysis reagent) in 0.2N NaOH was added to the plates and 100 μl of lysate was split into two plates with 50 μl each from which ratio of NADP/NADPH can be calculated. 25 μl of 0.4N HCl were added to the NADP+ plates and both NADP+ and NADPH plates were heated at 60° C. for 15 minutes. The acid and heat treatment destroyed NADPH allowing individual NADP+ measurements while heating in basic conditions destroys NADP+ allowing individual NADPH measurement. After 15 minutes plates were allowed to come to room temperature and Trizma base (Sigma, T1699) was added to the NADP+ plates to neutralize the acid and HCl Trizma hydrochloride (Sigma, T2694) was added to the NADPH plates. The NADNADPH glo reagent was prepared by adding 125 μl of NAD cycling substrate, 125 μl of reductase, 125 μl of reductase substrate, 125 μl NAD cycling enzyme to a total of the 25 ml of NAD GLO reagent. 1:1 ratio of total volume of reagent was added to the individual NADP+, NADPH measurements (total 100 μl) and 50 μl were added for the total NAD/NADPH measurements. Luminescence was measured for 30-60 minutes within the linear range.
A total dead cell count was performed as described in Example 817 and only alive cells were used for analysis.

Where [4] appears, read: Homo sapiens, HUVEC, 24 h, 1 uM, read-out: % decrease in IL-8.
Where [5] appears, read: Homo sapiens, HUVEC, 24 h, 10 uM, read-out: % decrease in TissueFactor.
Setting [6] is: Homo sapiens, HUVEC, 24 h, 10 uM, read-out: % decrease in sPGE2.
Setting [7] is: 10 uM, procedure of Example 829.
The mark [8] stands for this setting: VLCAD GM17475 P10, assay condition A (10 mM glucose, 2 mM L-glutamine, 1 mM pyruvate, 10% FBS).
[9] abbreviates: Homo sapiens, HUVEC, 24 h, 1 uM, read-out: % decrease in IL-1α.
Where [10] appears, read: Homo sapiens, HUVEC, 24 h, 10 uM, read-out: % decrease in IL-8.
[11] abbreviates: Homo sapiens, HUVEC, 24 h, 10 uM, read-out: % increase in sTNFα.
Setting [12] is: Homo sapiens, HUVEC, 24 h, 10 uM, read-out: % decrease in IL-1α.
The mark [13] stands for this setting: Homo sapiens, HUVEC, 24 h, 1 uM, read-out: % decrease in sPGE2.

As for `COC(=O)CCC(=O)SCCNC(=O)CCNC(=O)[C@H](OC(=O)CN)C(C)(C)CO` [Compound 1294, methyl 4-[(2-[3-[(2R)-2-[(2-aminoacetyl)oxy]-4-hydroxy-3,3-dimethylbutanamido]propanamido]ethyl)sulfanyl]-4-oxobutanoate], in series [1] (setting [4]), the inhibition at 1 µM was no less than 10%. In series [1] (Homo sapiens, HUVEC, 24 h, 1 uM, read-out: % increase in sTNFα), the activation at 1 µM was no less than 10%. The inhibition at 10 µM in series [1] (setting [5]) and in series [1] (setting [6]) was no less than 10% each time. Also, the “% increase in B-cell Proliferation” value in series [2] (1 uM, procedure of Example 829) is reported as no less than 10%. Moreover, the “% decrease in sIL-2” value in series [2] (setting [7]) is on record as no less than 10%.

For `CC(O)C(C(=O)SCCNC(=O)CCNC(=O)[C@H](O)C(C)(C)CO)C(C)O` (stereo partly drawn) [Compound 1285, (2R)-2,4-dihydroxy-N-[2-[(2-[[3-hydroxy-2-(1-hydroxyethyl)butanoyl]sulfanyl]ethyl)carbamoyl]ethyl]-3,3-dimethylbutanamide], the activation at 10 µM in series [3] (setting [8]) was no less than 10%.

As for `CCCCCCC(=O)SCCNC(=O)CCNC(=O)[C@H](O)C(C)(C)CO` [Compound 372, (2R)—N-(2-[[2-(heptanoylsulfanyl)ethyl]carbamoyl]ethyl)-2,4-dihydroxy-3,3-dimethylbutanamide], the inhibition at 1 µM in series [1] (setting [9]) was no less than 10%. Also, the inhibition at 10 µM in series [1] (setting [10]) was no less than 20%; in series [1] (setting [5]) it was no less than 10%. Besides, the activation at 10 µM in series [1] (setting [11]) is no less than 10%. The “% increase in sIL-2” value in series [2] (1 uM, procedure of Example 829) is on record as no less than 10%. Further, the “% increase in sIL-17” value in series [2] (setting [7]) is on record as no less than 20%.

As for `CC(O)CC(O)CC(=O)SCCNC(=O)CCNC(=O)[C@H](O)C(C)(C)CO` (stereo partly shown) [Compound 400], in series [3] (VLCAD GM17475 P10, assay condition B (1 mM glucose, 2 mM L-glutamine, 1 mM pyruvate, 10% FBS)), the activation at 10 µM is no less than 10%.

`COC(=O)CC(C(C)=O)C(=O)SCCNC(=O)CCNC(=O)[C@H](O)C(C)(C)CO` (stereo partly shown) [Compound 410]: in series [3] (setting [8]), the activation at 10 µM is no less than 10%.

On to `CC(C)(COC(=O)OCC[N+](C)(C)C)[C@@H](O)C(=O)NCCC(=O)NCCSC(=O)CCC(=O)O` [Compound 116, [2-([[(3R)-3-[[2-([2-[(3-carboxypropanoyl)sulfanyl]ethyl]carbamoyl)ethyl]carbamoyl]-3-hydroxy-2,2-dimethylpropoxy]carbonyl]oxy)ethyl]trimethylazanium], for which the inhibition at 10 µM in series [1] (setting [12]) is no less than 10%. Further, the “% decrease in B-cell proliferation” value in series [2] (1 uM, procedure of Example 829) was no less than 10%. Further, in series [2] (setting [7]), the “% decrease in sTNFα” value is no less than 10%.

`CC(C)(CO)[C@@H](O)C(=O)NCCC(=O)NCCSC(=O)CC(=O)CCC(=O)O` [Compound 2, 6-[(2-[3-[(2R)-2,4-dihydroxy-3,3-dimethylbutanamido]propanamido]ethyl)sulfanyl]-4,6-dioxohexanoic acid]: the activation at 10 µM in series [3] (setting [8]) was no less than 10%.

In the case of `CC(=O)SCCNC(=O)CCNC(=O)[C@H](O)C(C)(C)COC(=O)CCC(=O)O` [Compound 1242, (R)-12-hydroxy-13,13-dimethyl-2,7,11,16-tetraoxo-15-oxa-3-thia-6,10-diazanonadecan-19-oic acid], in series [3] (setting [8]), the activation at 10 µM is no less than 10%.

Take `CC(=O)OCC(C)(C)[C@@H](O)C(=O)NCCC(=O)NCCSC(=O)CC(=O)CCC(=O)O` [Compound 140, 6-[(2-[3-[(2R)-4-(acetyloxy)-2-hydroxy-3,3-dimethylbutanamido]propanamido]ethyl)sulfanyl]-4,6-dioxohexanoic acid]: the activation at 10 µM in series [3] (setting [8]) is no less than 10%.

With `COC(=O)CCC(=O)SCCNC(=O)CCNC(=O)[C@H](OC(=O)CNC(C)=O)C(C)(C)CO` [Compound 1298, methyl 4-[(2-[3-[(2R)-2-[(2-acetamidoacetyl)oxy]-4-hydroxy-3,3-dimethylbutanamido]propanamido]ethyl)sulfanyl]-4-oxobutanoate], the “% decrease in M-CSF” value in series [1] (1 uM) is given as no less than 20%. Further, the “% decrease in sTNFα” value in series [1] (1 uM) and in series [2] (setting [7]) was no less than 10% throughout. Also, the “% decrease in Thrombomodulin” value in series [1] (10 uM) is reported as no less than 10%. Further, the values for the inhibition at 1 µM in series [1] (setting [4]) and in series [1] (setting [13]) were no less than 10% and no less than 20%, respectively. In addition, the inhibition at 10 µM in series [1] (setting [12]) and in series [1] (setting [5]) was no less than 10% each time. Moreover, in series [1] (setting [11]), the activation at 10 µM is no less than 10%. Also, the “% increase in B-cell Proliferation” value in series [2] (1 uM, procedure of Example 829) is no less than 10%. The “% increase in sIL-17” value in series [2] (1 uM, procedure of Example 829) is no less than 20%.

`CC(C)(CO)[C@@H](O)C(=O)NCCC(=O)NCCSC(=O)[C@@H](N)Cc1ccc(O)c(O)c1` [Compound 371, (2R)—N-[2-[(2-[[(2S)-2-amino-3-(3,4-dihydroxyphenyl)propanoyl]sulfanyl]ethyl)carbamoyl]ethyl]-2,4-dihydroxy-3,3-dimethylbutanamide]: the “% decrease in sTNFα” value in series [1] (10 uM) was no less than 10%. In addition, the inhibition at 1 µM in series [1] (setting [9]) was no less than 10%. In addition, the inhibition at 10 µM in series [1] (setting [10]) and in series [1] (setting [6]) was no less than 10% in each case. Further, the “% increase in sIL-2” value in series [2] (1 uM, procedure of Example 829) is on record as no less than 20%. For the same compound, the “% increase in PBMC cytotoxicity” value in series [2] (human, 72 h, 10 µM) is listed as no less than 10%.

As for `CC(=O)SCCNC(=O)CCNC(=O)[C@H](O)C(C)(C)COC(=O)[C@@H](N)Cc1ccc(O)c(O)c1` [Compound 498, (3R)-3-[(2-[[2-(acetylsulfanyl)ethyl]carbamoyl]ethyl)carbamoyl]-3-hydroxy-2,2-dimethylpropyl (2S)-2-amino-3-(3,4-dihydroxyphenyl)propanoate], in series [1] (1 uM), the “% decrease in sTNFα” value is recorded as no less than 10%. For the same compound, the inhibition at 1 µM in series [1] (setting [4]) is no less than 20%; in series [1] (setting [13]), no less than 10%. Besides, in series [1] (setting [12]), the inhibition at 10 µM is no less than 10%. Also, in series [2] (1 uM, procedure of Example 829), the “% increase in sTNFα” value was no less than 10%. Moreover, the “% increase in sIL-2” value in series [2] (setting [7]) is no less than 20%.

For the compound `CC(=O)SCCNC(=O)CCNC(=O)[C@H](O)C(C)(C)COC(=O)[C@H](C)N` [Compound 502, (3R)-3-[(2-[[2-(acetylsulfanyl)ethyl]carbamoyl]ethyl)carbamoyl]-3-hydroxy-2,2-dimethylpropyl (2S)-2-aminopropanoate], the inhibition at 10 µM in series [1] (setting [10]), in series [1] (setting [5]) and in series [1] (setting [6]) was no less than 10% in each case.

Take `COC(=O)CCC(=O)SCCNC(=O)CCNC(=O)[C@H](O)C(C)(C)COC(C)=O` [Compound 138]: the “% increase in Tissue Factor” value in series [1] (1 uM) was no less than 10%. Also, the inhibition at 1 µM in series [1] (setting [13]) is no less than 10%. In series [2] (1 uM, procedure of Example 829), the “% decrease in sIL-2” value was no less than 10% and the “% decrease in sTNFα” value is recorded as no less than 20%.

Consider `COC(=O)CC(SCCNC(=O)CCNC(=O)[C@H](O)C(C)(C)COC(C)=O)C(=O)OC` (stereo partly drawn) [Compound 149, 1,4-dimethyl 2-[(2-[3-[(2R)-4-(acetyloxy)-2-hydroxy-3,3-dimethylbutanamido]propanamido]ethyl)sulfanyl]butanedioate], for which the “% increase in Tissue Factor” value in series [1] (1 uM) was no less than 10%. For the same compound, the “% increase in IL-8” value in series [1] (10 uM) was no less than 10%. Also, the inhibition at 10 µM in series [1] (setting [12]) is no less than 10%; in series [1] (setting [5]), no less than 20%; in series [1] (setting [6]), no less than 10%. Moreover, the “% increase in sIL-2” value in series [2] (setting [7]) is reported as no less than 20%. Also, the “% increase in sTNFα” value in series [2] (setting [7]) is reported as no less than 10%.

The values above are taken from patent US20230107216A1, “PANTETHEINE DERIVATIVES AND USES THEREOF” (Comet Therapeutics, Inc., priority 2018, published 2023).
